The record followed here is patent US20250188092A1, “RIFAMYCIN ANALOGS” (THE REGENTS OF THE UNIVERSITY OF MICHIGAN, priority 2021, published 2025).

Converted amounts (≈) assume the structure as drawn. Read-outs that look alike come from different tables or passages of the source. Bounds are passed on as bounds.

Assay [1] has as its system M. tuberculosis transformed with luxABCDE. The assay can be described thus: microbe, parasite or virus in culture. Format: cell-based, Mycobacterium tuberculosis. The settings on record: for MBC / MIC90: Mycobacterium tuberculosis, 168 h.
Assay [2] relates to non-replicating cultures of M. tuberculosis H37Rv transformed with lux ABCDE. Description: microbe, parasite or virus in culture. It counts as cell-based, Mycobacterium tuberculosis. To be noted: for MIC90 / MIC: Mycobacterium tuberculosis, H37RV, ≥90% reduction in luminescence, read-out: MIC90 LORA; for MIC90 LORA/MABA: ratio of LORA MIC90 to MABA MIC90.
Setting [3] is: […], ≥99% reduction in luminescence, read-out: MBC99 Day 7 (Lux Assay) MBC.
Where [4] appears, read: day 7 of time-kill study, read-out: MBC99.

`CCC(=O)N1CCN(c2cc(OCc3ccc(CN4CCOCC4)cc3)c3nc4c5c6c7c(C)c(O)c5c(=O)c(c-4oc3c2)NC(=O)/C(C)=C\C=C\[C@H](C)[C@H](O)[C@@H](C)[C@@H](O)[C@@H](C)[C@H](OC(C)=O)[C@H](C)[C@@H](OC)/C=C/O[C@@](C)(O7)C6=O)CC1` [Compound 17g, (7S,9E,11S,12R,13S,14R,15R,16R,17S,18S,19E,21Z)-2,15,17-Trihydroxy-11-methoxy-3,7,12,14,16,18,22-heptamethyl-32-({4-[(morpholin-4-yl)methyl]phenyl}methoxy)-6,23,37-trioxo-30-(4-propanoylpiperazin-1-yl)-8,27,38-trioxa-24,34-diazahexacyclo-[23.11.1.1^4,7.0^5,36.0^26,35.0^28,33]octatriaconta-1(36)2,4,9,19,21,25,28,30,32,34-undecaen-13-yl acetate]: the MBC in assay [1] (setting [3]) was more than 0.1 µM. Also, in assay [2], the “MIC90 LORA Rel to RMP” value is 0.3, the MIC90 was determined as 0.065 µM and the “MIC90 LORA/MABA” value stood at 5.4.

As for `CO[C@H]1/C=C/O[C@@]2(C)Oc3c(C)c(O)c4c(=O)c(c5oc6cc(N7CCN(C(=O)C(C)(C)C)CC7)cc(C)c6nc-5c4c3C2=O)NC(=O)/C(C)=C\C=C\[C@H](C)[C@H](O)[C@@H](C)[C@@H](O)[C@@H](C)[C@H](OC(C)=O)[C@@H]1C` [Compound 26f, (7S,9E,11S,12R,13S,14R,15R,16R,17S,18S,19E,21Z)-30-[4-(2,2-Dimethylpropanoyl)piperazin-1-yl]-2,15,17-trihydroxy-11-methoxy-3,7,12,14,16,18,22,32-octamethyl-6,23,37-trioxo-8,27,38-trioxa-24,34-diazahexacyclo[23.11.1.1^4,7.0^5,36.0^26,35.0^28,33]octatriaconta-1(36)2,4,9,19,21,25,28,30,32,34-undecaen-13-yl acetate], the “MBC99 Day 7 (Lux Assay) MBC Rel to RMP” value in assay [1] was 0.09. In assay [1] (setting [3]), the MBC was found to be 0.043 µM. Also, in assay [2], the “MIC90 LORA Rel to RMP” value is given as 0.05, the MIC90 amounted to 0.0095 µM and the “MIC90 LORA/MABA” value is 2.1.

In the case of `CO[C@H]1/C=C/O[C@@]2(C)Oc3c(C)c(O)c4c(=O)c(c5oc6cc(C)cc(N7CCN(CCn8ccnc8)CC7)c6nc-5c4c3C2=O)NC(=O)/C(C)=C\C=C\[C@H](C)[C@H](O)[C@@H](C)[C@@H](O)[C@@H](C)[C@H](OC(C)=O)[C@@H]1C` [Compound 30e, (7S,9E,11S,12R,13S,14R,15R,16R,17S,18S,19E,21Z)-2,15,17-Trihydroxy-32-{4-[3-(1H-imidazol-1-yl)ethyl]piperazin-1-yl}-11-methoxy-3,7,12,14,16,18,22,30-octamethyl-6,23,37-trioxo-8,27,38-trioxa-24,34-diazahexacyclo[23.11.1.1^4,7.0^5,36.0^26,35.0^28,33]octatriaconta-1(36)2,4,9,19,21,25,28,30,32,34-undecaen-13-yl acetate], in assay [1], the “MBC99 Day 7 (Lux Assay) MBC Rel to RMP” value is given as 1.06. For the same compound, the MBC in assay [1] (setting [3]) was found to be 0.49 µM. Further, in assay [2], the “MIC90 LORA Rel to RMP” value turned out to be 0.87, the MIC90 worked out at 0.18 µM and the “MIC90 LORA/MABA” value was found to be 2.1.

As for `CO[C@H]1/C=C/O[C@@]2(C)Oc3c(C)c(O)c4c(=O)c(c5oc6cc(N7CCN(CC(=O)O)CC7)cc(OCc7ccc(CN8CCOCC8)cc7)c6nc-5c4c3C2=O)NC(=O)/C(C)=C\C=C\[C@H](C)[C@H](O)[C@@H](C)[C@@H](O)[C@@H](C)[C@H](OC(C)=O)[C@@H]1C` [Compound 17i], the MBC in assay [1] (setting [3]) was more than 0.1 µM. Moreover, in assay [2], the “MIC90 LORA Rel to RMP” value turned out to be 9.2, the MIC was 0.247 µM (≈ 0.28 µg/mL) and the “MIC90 LORA/MABA” value came to 9.5.

With `CO[C@H]1/C=C/O[C@@]2(C)Oc3c(C)c(O)c4c(=O)c(c5oc6cc(N7CCN(C(=O)c8ccncc8)CC7)cc(OCc7ccc(CN8CCOCC8)cc7)c6nc-5c4c3C2=O)NC(=O)/C(C)=C\C=C\[C@H](C)[C@H](O)[C@@H](C)[C@@H](O)[C@@H](C)[C@H](OC(C)=O)[C@@H]1C` [Compound 17n, 7S,9E,11S,12R,13S,14R,15R,16R,17S,18S,19E,21Z)-2,15,17-trihydroxy-11-methoxy-3,7,12,14,16,18,22-heptamethyl-32-{[4-(morpholin-4-ylmethyl)phenyl]methoxy}-6,23,37-trioxo-30-{4-[(pyridin-4-yl)carbonyl]piperazin-1-yl}-8,27,38-trioxa-24,34-diazahexacyclo[23.11.1.1^4,7.0^5,36.0^26,35.0^28,33]octatriaconta-1,3,5(36)9,19,21,25,28,30,32,34-undecaen-13-yl acetate], the “MBC99 Day 7 (Lux Assay) MBC Rel to RMP” value in assay [1] was determined as 0.70. Further, the MBC in assay [1] (setting [3]) worked out at 0.315 µM. For the same compound, in assay [2], the “MIC90 LORA Rel to RMP” value was 4.7, the MIC90 amounted to 0.235 µM and the “MIC90 LORA/MABA” value amounted to 3.2.

`NNC(=O)c1ccncc1` [Isoniazid, isoniazid, reference compound] yielded an MIC90 in assay [1] (day 7 of time-kill study) of 0.409 µM (≈ 0.0561 µg/mL). Moreover, in assay [1] (setting [4]), the MBC is 3.59 µM (≈ 0.492 µg/mL).

With `CO[C@H]1/C=C/O[C@@]2(C)Oc3c(C)c(O)c4c(=O)c(c5oc6cc(N7CCN(CC(C)C)CC7)cc(N7CCN(CC(C)C)CC7)c6nc-5c4c3C2=O)NC(=O)/C(C)=C\C=C\[C@H](C)[C@H](O)[C@@H](C)[C@@H](O)[C@@H](C)[C@H](OC(C)=O)[C@@H]1C` [Compound 17u, 7S,9E,11S,12R,13S,14R,15R,16R,17S,18S,19E,21Z)-2,15,17-trihydroxy-11-methoxy-3,7,12,14,16,18,22-heptamethyl-30,32-bis[4-(2-methylpropyl)piperazin-1-yl]-6,23,37-trioxo-8,27,38-trioxa-24,34-diazahexacyclo[23.11.1.1^4,7.0^5,36.0^26,35.0^28,33]octatriaconta-1,3,5(36)9,19,21,25,28,30,32,34-undecaen-13-yl acetate], in assay [1], the “MBC99 Day 7 (Lux Assay) MBC Rel to RMP” value is recorded as 0.05. Moreover, in assay [1] (setting [3]), the MBC turned out to be 0.025 µM.

In the case of `CO[C@H]1/C=C/O[C@@]2(C)Oc3c(C)c(O)c4c(=O)c(c5oc6cccc(OCc7ccc(CN8CCN(C(=O)CN9CCOCC9)CC8)cc7)c6nc-5c4c3C2=O)NC(=O)/C(C)=C\C=C\[C@H](C)[C@H](O)[C@@H](C)[C@@H](O)[C@@H](C)[C@H](OC(C)=O)[C@@H]1C` [Compound 16c, (7S,9E,11S,12R,13S,14R,15R,16R,17S,18S,19E,21Z)-2,15,17-Trihydroxy-11-methoxy-3,7,12,14,16,18,22-heptamethyl-32-{[4-({4-[2-(morpholin-4-yl)acetyl]piperazin-1-yl}methyl)phenyl]methoxy}-6,23,37-trioxo-8,27,38-trioxa-24,34-diazahexacyclo[23.11.1.1^4,7.0^5,36.0^26,35.0^28,33]octatriaconta-1(36)2,4,9,19,21,25,28,30,32,34-undecaen-13-yl acetate], the “MBC99 Day 7 (Lux Assay) MBC Rel to RMP” value in assay [1] is reported as 0.08. In assay [1] (setting [3]), the MBC is 0.061 µM.

Take `O=[N+]([O-])c1cn2c(n1)OC[C@@H](OCc1ccc(OC(F)(F)F)cc1)C2` [Pretomanid, pretomanid, reference compound]: the MIC90 in assay [1] (day 7 of time-kill study) came to 0.47 µM (≈ 0.169 µg/mL). Further, in assay [1] (setting [4]), the MBC was determined as 0.597 µM (≈ 0.214 µg/mL).

Turning to `COc1nc2ccc(Br)cc2cc1[C@@H](c1ccccc1)[C@@](O)(CCN(C)C)c1cccc2ccccc12` [Bedaquiline], the MIC90 in assay [1] (day 7 of time-kill study) amounted to 0.031 µM (≈ 0.0172 µg/mL). Also, in assay [1] (setting [4]), the MBC worked out at 0.124 µM (≈ 0.0689 µg/mL).

Regarding `CO[C@H]1/C=C/O[C@@]2(C)Oc3c(C)c(O)c4c(=O)c(c5oc6cc(N7CCN(CC(C)C)CC7)cc(OCc7ccc(CN8CCN(C(=O)CN9CCOCC9)CC8)cc7)c6nc-5c4c3C2=O)NC(=O)/C(C)=C\C=C\[C@H](C)[C@H](O)[C@@H](C)[C@@H](O)[C@@H](C)[C@H](OC(C)=O)[C@@H]1C` [Compound 17d, (7S,9E,11S,12R,13S,14R,15R,16R,17S,18S,19E,21Z)-2,15,17-Trihydroxy-11-methoxy-3,7,12,14,16,18,22-heptamethyl-30-[4-(2-methylpropyl)piperazin-1-yl]-32-{[4-({4-[2-(morpholin-4-yl)acetyl]piperazin-1-yl}methyl)phenyl]methoxy}-6,23,37-trioxo-8,27,38-trioxa-24,34-diazahexacyclo[23.11.1.1^4,7.0^5,36.0^26,35.0^28,33]octatriaconta-1(36)2,4,9,19,21,25,28,30,32,34-undecaen-13-yl acetate], the MIC90 in assay [2] was less than 0.016 µM.

Turning to `CO[C@H]1/C=C/O[C@@]2(C)Oc3c(C)c(O)c4c(=O)c(c5oc6cc(C)cc(N7CCN(C(=O)c8cccc(-c9ccccn9)c8)CC7)c6nc-5c4c3C2=O)NC(=O)/C(C)=C\C=C\[C@H](C)[C@H](O)[C@@H](C)[C@@H](O)[C@@H](C)[C@H](OC(C)=O)[C@@H]1C` [Compound 30g, (7S,9E,11S,12R,13S,14R,15R,16R,17S,18S,19E,21Z)-2,15,17-Trihydroxy-11-methoxy-3,7,12,14,16,18,22,30-octamethyl-6,23,37-trioxo-32-{4-[3-(pyridin-2-yl)benzoyl]piperazin-1-yl}-8,27,38-trioxa-24,34-diazahexacyclo[23.11.1.1^4,7.0^5,36.0^26,35.0^28,33]octatriaconta-1(36)2,4,9,19,21,25,28,30,32,34-undecaen-13-yl acetate], in assay [2], the “MIC90 LORA Rel to RMP” value was 0.16, the MIC90 was 0.032 µM and the “MIC90 LORA/MABA” value is recorded as 1.2.

`CO[C@H]1/C=C/O[C@@]2(C)Oc3c(C)c(O)c4c(=O)c(c5oc6cccc(OCCCCN7CCN(C)CC7)c6nc-5c4c3C2=O)NC(=O)/C(C)=C\C=C\[C@H](C)[C@H](O)[C@@H](C)[C@@H](O)[C@@H](C)[C@H](OC(C)=O)[C@@H]1C` [Compound 5a, (7S,9E,11S,12R,13S,14R,15R,16R,17S,18S,19E,21Z)-2,15,17-Trihydroxy-11-methoxy-3,7,12,14,16,18,22-heptamethyl-32-[4-(4-methylpiperazin-1-yl)butoxy]-6,23,37-trioxo-8,27,38-trioxa-24,34-diazahexacyclo[23.11.1.1^4,7.0^5,36.0^26,35.0^28,33]octatriaconta-1(36)2,4,9,19,21,25,28(33)29,31,34-undecaen-13-yl acetate]: in assay [2], the “MIC90 LORA Rel to RMP” value came to 0.57, the MIC amounted to 0.186 µM and the “MIC90 LORA/MABA” value was determined as 2.0.
